The record followed here is patent publication US20230077362A1 (CORTEVA AGRISCIENCE LLC, priority 2019, published 2023).

Like-named read-outs stand apart in the source and are kept apart here.

Experiment [1] concerns Beet Armyworm (Spodoptera exigua) ("BAW"), second instar larvae. Briefly: Bioassay on beet armyworm (BAW), 128-well diet tray assay. In kind it is in vivo. The note with it: for pest or weed control at 50 µg/cm2: Spodoptera exigua. In a few lines: (§1)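 Second-instar larvae on diet in 128-well trays, covered and held at 25° C, 14:10 light-dark, for five to seven days. Percent mortality scored per well and averaged over eight wells; activity reported as a rating category.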

Experiment [2] concerns Cabbage Looper (Trichoplusia ni) ("CL"), second instar larvae. Briefly: Bioassay on cabbage looper (CL), 128-well diet tray assay. In kind it is in vivo. Conditions: for pest or weed control at 50 µg/cm2: Trichoplusia ni. In a few lines:
as §1

The mark [3] stands for this setting: read-out: BAW (Biological Results, rating).
Where [4] appears, read: read-out: CL (Biological Results, rating).

As for `Cc1ccc(COCC(F)(F)F)c(N2C(=O)CS/C2=N\C(=O)Nc2ccc(-c3ncn(-c4ccc(OCC(F)(F)F)cc4)n3)cc2F)c1` [Compound J764, (Z)-1-(2-Fluoro-4-(1-(4-(2,2,2-trifluoroethoxy)phenyl)-1H-1,2,4-triazol-3-yl)phenyl)-3-(3-(5-methyl-2-((2,2,2-trifluoroethoxy)methyl)phenyl)-4-oxothiazolidin-2-ylidene)urea], the pest or weed control at 50 µg/cm2 in experiment [1] (read-out: BAW rating) and in experiment [2] (read-out: CL rating) was 50 to 100% in each case.
As to `CCCc1ccc(C)cc1N1C(=O)CS/C1=N\C(=O)Nc1ccc(-c2ncn(-c3ccc(OC(F)(F)F)cc3)n2)cc1C` [Compound J53, (Z)-1-(3-(5-Methyl-2-propylphenyl)-4-oxothiazolidin-2-ylidene)-3-(2-methyl-4-(1-(4-(trifluoromethoxy)phenyl)-1H-1,2,4-triazol-3-yl)phenyl)urea], the pest or weed control at 50 µg/cm2 in experiment [1] (setting [3]) and in experiment [2] (setting [4]) was 50 to 100% throughout.
Take `Cc1ccc(OCCC(F)(F)F)c(N2C(=O)CS/C2=N\C(=O)Nc2ccc(-c3ncn(-c4ccc(OC(F)(F)F)cn4)n3)cc2C#N)c1` [Compound J264, (Z)-1-(2-Cyano-4-(1-(5-(trifluoromethoxy)pyridin-2-yl)-1H-1,2,4-triazol-3-yl)phenyl)-3-(3-(5-methyl-2-(3,3,3-trifluoropropoxy)phenyl)-4-oxothiazolidin-2-ylidene)urea]: the pest or weed control at 50 µg/cm2 in experiment [1] (setting [3]) and in experiment [2] (setting [4]) was 50 to 100% throughout.
As to `Cc1ccc(C(C)C)c(N2C(=O)CS/C2=N\C(=O)Nc2ccc(-c3ncn(-c4ccc(OC(F)(F)F)cn4)n3)cc2C#N)c1` [Compound J259, (Z)-1-(2-Cyano-4-(1-(5-(trifluoromethoxy)pyridin-2-yl)-1H-1,2,4-triazol-3-yl)phenyl)-3-(3-(2-isopropyl-5-methylphenyl)-4-oxothiazolidin-2-ylidene)urea], the pest or weed control at 50 µg/cm2 in experiment [1] (setting [3]) and in experiment [2] (setting [4]) was 50 to 100% in each case.
With `COC(c1ccc(C)cc1N1C(=O)CS/C1=N\C(=O)Nc1ccc(-n2cnc(-c3ccc(OC(F)(F)F)cc3)n2)cc1F)C(F)(F)F` (stereo not shown) [Compound J687, (Z)-1-(2-Fluoro-4-(3-(4-(trifluoromethoxy)phenyl)-1H-1,2,4-triazol-1-yl)phenyl)-3-(3-(5-methyl-2-(2,2,2-trifluoro-1-methoxyethyl)phenyl)-4-oxothiazolidin-2-ylidene)urea], the pest or weed control at 50 µg/cm2 in experiment [1] (read-out: BAW rating) and in experiment [2] (read-out: CL rating) was 50 to 100% each time.
As for `Cc1ccc(COCC(C)(F)F)c(N2C(=O)CS/C2=N\C(=O)Nc2ccc(-c3ncn(-c4ccc(OC(F)(F)F)cc4)n3)cc2F)c1` [Compound J535], the BAW rating result in experiment [1] (Table ABC, species BAW, C = not tested, D = no activity noticed) is on record as “A (50-100)”. For the same compound, the CL rating result in experiment [2] (Table ABC, species CL, C = not tested, D = no activity noticed) is “A (50-100)”.
In the case of `Cc1cc(COCC(F)(F)F)c(N2C(=O)CS/C2=N\C(=O)Nc2ccc(-c3ncn(-c4ccc(S(F)(F)(F)(F)F)cc4)n3)cc2C(F)(F)F)cc1C` [Compound J632, (Z)-1-(3-(4,5-Dimethyl-2-((2,2,2-trifluoroethoxy)methyl)phenyl)-4-oxothiazolidin-2-ylidene)-3-(4-(1-(4-(pentafluoro-λ^6-sulfaneyl)phenyl)-1H-1,2,4-triazol-3-yl)-2-(trifluoromethyl)phenyl)urea], the pest or weed control at 50 µg/cm2 in experiment [1] (read-out: BAW rating) and in experiment [2] (read-out: CL rating) was 50 to 100% throughout.
Take `Cc1ccc(COCC(F)F)c(N2C(=O)CS/C2=N\C(=O)Nc2ccc(-n3cnc(-c4ccc(OC(F)(F)F)cc4)n3)cc2F)c1` [Compound J692, (Z)-1-(3-(2-((2,2-Difluoroethoxy)methyl)-5-methylphenyl)-4-oxothiazolidin-2-ylidene)-3-(2-fluoro-4-(3-(4-(trifluoromethoxy)phenyl)-1H-1,2,4-triazol-1-yl)phenyl)urea]: the pest or weed control at 50 µg/cm2 in experiment [1] (read-out: BAW rating) and in experiment [2] (read-out: CL rating) was 50 to 100% throughout.
